Experimental data as given in ChEMBL document CHEMBL5465560, “Selectivity Literature for EUbOPEN Chemogenomic Library” (2024).

Key:
[1] = molecular target: T1, Ephrin type-B receptor 3 (Homo sapiens) (UniProt P54753); assay: Selectivity interaction (KinomeScan (DiscoverX)) EUB0000229b EPHB3; conditions: at 10 µM
T1 sequence (whole entry): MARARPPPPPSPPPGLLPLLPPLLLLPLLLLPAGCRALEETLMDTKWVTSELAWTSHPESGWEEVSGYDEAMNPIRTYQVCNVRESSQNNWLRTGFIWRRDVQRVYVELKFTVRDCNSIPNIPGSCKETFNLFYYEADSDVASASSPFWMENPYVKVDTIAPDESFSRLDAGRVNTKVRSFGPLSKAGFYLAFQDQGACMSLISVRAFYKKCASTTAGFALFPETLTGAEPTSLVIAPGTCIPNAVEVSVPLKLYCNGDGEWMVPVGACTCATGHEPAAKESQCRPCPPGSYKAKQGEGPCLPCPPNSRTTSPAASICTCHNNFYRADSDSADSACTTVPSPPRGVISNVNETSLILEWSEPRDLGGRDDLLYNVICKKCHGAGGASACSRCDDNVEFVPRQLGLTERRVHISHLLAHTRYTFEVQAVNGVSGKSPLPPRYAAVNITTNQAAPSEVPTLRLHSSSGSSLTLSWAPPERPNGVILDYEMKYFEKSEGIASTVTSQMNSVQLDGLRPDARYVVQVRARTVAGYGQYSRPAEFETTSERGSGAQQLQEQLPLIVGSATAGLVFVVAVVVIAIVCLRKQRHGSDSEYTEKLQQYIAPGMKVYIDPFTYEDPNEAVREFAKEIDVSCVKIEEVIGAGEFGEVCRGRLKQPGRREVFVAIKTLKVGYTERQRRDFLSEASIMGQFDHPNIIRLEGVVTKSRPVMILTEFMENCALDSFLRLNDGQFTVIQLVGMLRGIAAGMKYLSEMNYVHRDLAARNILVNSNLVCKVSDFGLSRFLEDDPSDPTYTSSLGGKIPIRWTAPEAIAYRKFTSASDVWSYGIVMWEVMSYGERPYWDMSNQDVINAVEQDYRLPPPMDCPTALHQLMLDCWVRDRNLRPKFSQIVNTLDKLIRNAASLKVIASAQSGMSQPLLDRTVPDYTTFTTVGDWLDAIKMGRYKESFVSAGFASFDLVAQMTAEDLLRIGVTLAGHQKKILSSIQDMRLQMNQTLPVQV

[2] = molecular target: Cyclin-dependent kinase 7 (Homo sapiens, UniProt P50613); assay: Selectivity interaction (ActivX KiNativ screen (kinase selectivity in THP-1 cell lysates)) EUB0000639a CDK7; assay type: subcellular; conditions: lysate, at 0.04 µM
[3] = molecular target: Receptor-interacting serine/threonine-protein kinase 2 (Homo sapiens, UniProt O43353); assay: Selectivity interaction (KinomeScan (DiscoverX)) EUB0000092b RIPK2; conditions: at 10 µM
[4] = molecular target: T2, Calcium/calmodulin-dependent protein kinase type IV (Homo sapiens) (UniProt Q16566); assay: Selectivity interaction (KinomeScan (DiscoverX)) EUB0000045b CAMK4
T2 sequence (whole entry): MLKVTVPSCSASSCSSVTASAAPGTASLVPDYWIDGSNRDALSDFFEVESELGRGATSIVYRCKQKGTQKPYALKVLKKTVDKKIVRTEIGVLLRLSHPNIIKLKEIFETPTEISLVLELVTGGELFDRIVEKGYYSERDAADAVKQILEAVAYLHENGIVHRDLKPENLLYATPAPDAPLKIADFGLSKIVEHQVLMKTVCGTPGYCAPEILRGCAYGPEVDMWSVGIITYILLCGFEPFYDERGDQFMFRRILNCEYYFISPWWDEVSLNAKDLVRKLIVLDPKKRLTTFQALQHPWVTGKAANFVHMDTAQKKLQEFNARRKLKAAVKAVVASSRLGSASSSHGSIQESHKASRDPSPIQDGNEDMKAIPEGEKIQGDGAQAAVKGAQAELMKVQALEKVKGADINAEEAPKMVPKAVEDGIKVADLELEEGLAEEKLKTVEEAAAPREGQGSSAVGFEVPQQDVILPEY

[5] = molecular target: Mitogen-activated protein kinase kinase kinase 1 (Homo sapiens, UniProt Q13233); assay: Selectivity interaction (ActivX KiNativ screen (ex vivo kinase selectivity in human PBMCs)) EUB0001619a MAP3K1; assay type: cell-based; conditions: PBMC, at 1 µM
[6] = molecular target: Calcium/calmodulin-dependent protein kinase kinase 2 (Homo sapiens) (UniProt Q96RR4); assay: Selectivity interaction (KinomeScan (DiscoverX)) EUB0001619a CAMKK2; conditions: at 1 µM
[7] = molecular target: T3, Protein kinase C zeta type (Homo sapiens) (UniProt Q05513); assay: Selectivity interaction (Upstate Kinase Profiler service (Millipore)) EUB0000056c PRKCZ; conditions: at 1 µM
T3 sequence (whole entry): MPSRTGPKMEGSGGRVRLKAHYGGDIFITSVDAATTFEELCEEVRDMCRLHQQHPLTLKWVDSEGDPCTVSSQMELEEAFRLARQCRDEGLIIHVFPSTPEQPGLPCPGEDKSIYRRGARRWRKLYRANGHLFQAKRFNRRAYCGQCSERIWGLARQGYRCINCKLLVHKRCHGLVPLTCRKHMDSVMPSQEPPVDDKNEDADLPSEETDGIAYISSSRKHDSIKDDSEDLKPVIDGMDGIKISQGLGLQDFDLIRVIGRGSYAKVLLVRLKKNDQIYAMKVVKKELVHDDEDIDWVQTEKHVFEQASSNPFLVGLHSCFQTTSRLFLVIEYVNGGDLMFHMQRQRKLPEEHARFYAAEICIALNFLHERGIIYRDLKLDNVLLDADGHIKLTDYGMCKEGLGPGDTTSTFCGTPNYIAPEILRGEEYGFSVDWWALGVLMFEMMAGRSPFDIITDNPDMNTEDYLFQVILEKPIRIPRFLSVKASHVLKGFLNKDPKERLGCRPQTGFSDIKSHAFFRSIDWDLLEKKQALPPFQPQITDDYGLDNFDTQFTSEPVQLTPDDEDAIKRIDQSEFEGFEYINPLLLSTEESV

Calcium/calmodulin-dependent protein kinase kinase 2 (Homo sapiens), sequence (Q96RR4 2-588 limits assumed): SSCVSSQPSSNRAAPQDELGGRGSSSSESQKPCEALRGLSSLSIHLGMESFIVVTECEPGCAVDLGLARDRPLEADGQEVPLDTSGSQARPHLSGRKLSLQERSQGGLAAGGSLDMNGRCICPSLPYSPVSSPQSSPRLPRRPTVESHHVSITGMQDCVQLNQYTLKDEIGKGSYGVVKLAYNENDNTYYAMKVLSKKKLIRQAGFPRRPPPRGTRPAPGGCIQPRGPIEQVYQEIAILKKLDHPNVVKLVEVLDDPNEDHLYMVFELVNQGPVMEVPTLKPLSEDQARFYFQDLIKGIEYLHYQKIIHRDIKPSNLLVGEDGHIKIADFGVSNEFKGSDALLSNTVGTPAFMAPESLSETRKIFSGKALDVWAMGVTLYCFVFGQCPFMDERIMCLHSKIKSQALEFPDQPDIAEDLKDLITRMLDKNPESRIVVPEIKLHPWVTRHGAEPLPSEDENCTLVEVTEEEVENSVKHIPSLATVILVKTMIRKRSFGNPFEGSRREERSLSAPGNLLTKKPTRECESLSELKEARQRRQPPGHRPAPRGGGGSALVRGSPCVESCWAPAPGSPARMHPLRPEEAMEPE
Receptor-interacting serine/threonine-protein kinase 2, sequence (O43353 whole entry): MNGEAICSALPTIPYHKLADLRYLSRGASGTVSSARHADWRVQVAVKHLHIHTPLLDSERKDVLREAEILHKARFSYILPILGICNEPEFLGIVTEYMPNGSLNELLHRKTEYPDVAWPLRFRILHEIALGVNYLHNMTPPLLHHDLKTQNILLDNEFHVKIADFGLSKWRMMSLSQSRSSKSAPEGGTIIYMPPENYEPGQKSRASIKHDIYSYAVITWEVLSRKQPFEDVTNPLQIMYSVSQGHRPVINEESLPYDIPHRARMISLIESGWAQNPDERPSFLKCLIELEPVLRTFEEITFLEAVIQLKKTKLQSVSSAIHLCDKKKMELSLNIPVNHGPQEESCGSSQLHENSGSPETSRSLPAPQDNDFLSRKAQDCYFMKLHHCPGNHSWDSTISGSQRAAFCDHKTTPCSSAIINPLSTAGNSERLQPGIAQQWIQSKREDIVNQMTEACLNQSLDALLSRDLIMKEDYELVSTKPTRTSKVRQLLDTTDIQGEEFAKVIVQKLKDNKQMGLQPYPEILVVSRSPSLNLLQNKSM
Cyclin-dependent kinase 7, sequence (P50613 whole entry): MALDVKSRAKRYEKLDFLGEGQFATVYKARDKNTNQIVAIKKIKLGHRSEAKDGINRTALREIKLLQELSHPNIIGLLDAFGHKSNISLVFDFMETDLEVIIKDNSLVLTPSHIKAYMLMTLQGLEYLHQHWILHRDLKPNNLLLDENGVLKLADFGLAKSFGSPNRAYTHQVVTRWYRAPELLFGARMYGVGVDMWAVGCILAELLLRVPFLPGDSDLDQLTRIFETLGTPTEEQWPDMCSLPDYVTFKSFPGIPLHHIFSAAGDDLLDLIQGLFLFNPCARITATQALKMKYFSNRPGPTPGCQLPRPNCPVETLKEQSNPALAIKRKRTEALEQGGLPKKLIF
Mitogen-activated protein kinase kinase kinase 1, sequence (Q13233 whole entry): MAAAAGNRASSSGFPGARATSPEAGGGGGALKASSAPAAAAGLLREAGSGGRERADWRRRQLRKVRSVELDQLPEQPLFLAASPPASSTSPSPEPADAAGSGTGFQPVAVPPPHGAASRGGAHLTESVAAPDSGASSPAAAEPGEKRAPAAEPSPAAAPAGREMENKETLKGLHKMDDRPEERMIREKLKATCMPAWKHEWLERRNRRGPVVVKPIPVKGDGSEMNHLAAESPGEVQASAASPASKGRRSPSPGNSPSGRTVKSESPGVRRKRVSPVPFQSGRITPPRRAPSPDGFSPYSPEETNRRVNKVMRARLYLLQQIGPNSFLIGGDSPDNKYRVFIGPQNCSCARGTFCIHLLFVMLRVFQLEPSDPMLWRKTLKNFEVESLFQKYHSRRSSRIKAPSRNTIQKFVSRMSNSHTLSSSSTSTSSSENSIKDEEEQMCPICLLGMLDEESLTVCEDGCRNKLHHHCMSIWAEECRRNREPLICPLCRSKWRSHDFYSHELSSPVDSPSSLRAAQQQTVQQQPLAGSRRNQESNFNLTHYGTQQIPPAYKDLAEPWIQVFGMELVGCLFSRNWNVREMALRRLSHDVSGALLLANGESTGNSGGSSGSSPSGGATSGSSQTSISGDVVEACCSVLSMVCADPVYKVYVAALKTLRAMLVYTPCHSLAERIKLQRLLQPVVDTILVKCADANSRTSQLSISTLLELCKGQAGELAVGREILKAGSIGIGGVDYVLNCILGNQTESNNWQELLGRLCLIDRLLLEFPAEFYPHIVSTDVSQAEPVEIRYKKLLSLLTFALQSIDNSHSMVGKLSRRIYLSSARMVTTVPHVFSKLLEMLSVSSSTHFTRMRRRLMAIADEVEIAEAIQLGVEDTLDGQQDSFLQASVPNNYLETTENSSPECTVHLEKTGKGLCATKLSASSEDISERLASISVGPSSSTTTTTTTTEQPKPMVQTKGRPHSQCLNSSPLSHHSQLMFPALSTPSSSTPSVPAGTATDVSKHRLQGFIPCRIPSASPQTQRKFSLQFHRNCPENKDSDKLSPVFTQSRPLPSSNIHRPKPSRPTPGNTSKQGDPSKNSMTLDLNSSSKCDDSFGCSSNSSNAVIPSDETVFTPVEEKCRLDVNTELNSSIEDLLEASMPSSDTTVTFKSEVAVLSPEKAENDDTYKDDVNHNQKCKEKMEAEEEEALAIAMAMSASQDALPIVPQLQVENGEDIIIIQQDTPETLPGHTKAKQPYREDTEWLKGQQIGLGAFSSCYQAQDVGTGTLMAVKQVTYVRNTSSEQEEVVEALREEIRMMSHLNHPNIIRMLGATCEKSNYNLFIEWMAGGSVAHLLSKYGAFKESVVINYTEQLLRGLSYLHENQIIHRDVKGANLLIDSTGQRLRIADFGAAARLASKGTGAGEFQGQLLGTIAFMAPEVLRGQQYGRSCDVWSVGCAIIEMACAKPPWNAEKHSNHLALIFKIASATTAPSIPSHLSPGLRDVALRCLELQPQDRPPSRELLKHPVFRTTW

COc1cc(N(C)c2ccnc3ccc(C(F)(F)F)cc23)cc(OC)c1OC
% binding [1]: 85%

CC[C@@H]1[C@H](F)C(=O)N[C@@H]1COc1nccc2cc(C(N)=O)c(OC)cc12 [ZIMLOVISERTIB]
% of inhibition [2]: -3.7%

CCC(=O)N1CCN(c2ccc(-n3c(=O)ccc4cnc5ccc(-c6cnc7ccccc7c6)cc5c43)cc2C(F)(F)F)CC1
% of control [3]: 44%

C=CC(=O)Nc1cc(-n2c(=O)ccc3cnc4ccc(-c5ccc(NS(C)(=O)=O)cc5)cc4c32)ccc1C
% of control ([4]; at 1 µM): 100% | % of control ([4]; at 10 µM): 72%

N#Cc1cccc(-c2c[nH]c3ncnc(N4CCOCC4)c23)c1
% of inhibition [5]: 45% | % of control [6]: 78%

Cc1ccc(-c2ccc3c(ccc4sc5c(c43)NC[C@@H](C)NC5=O)n2)cn1
% of inhibition [7]: -8%
